The target of this test is T1, human GPR40 (Homo sapiens, UniProt O14842).
T1 construct: expressed in transfected cells
Kind of test: GPR40 Calcium Flux Assay. The class given is cell-based. Conditions: transfected HEK293 cells stably expressing human GPR40; calcium-sensitive fluorescent dye; read-out: hGPR40 Ca^2+ Assay EC50. As to the method: Compounds were tested in a calcium flux assay using transfected HEK293 cells stably expressing either human GPR40 or rat GPR40. Human GPR40 expressing cells were cultured in DMEM-High Glucose media supplemented with 10% fetal bovine serum, 1×L-Glutamine, 1×Penicillin/Streptomycin and 500 μg/mL G418. Rat GPR40 expressing cells were cultured in DMEM-High Glucose media supplemented with 10% fetal bovine serum and 1 μg/mL puromycin. Cells were plated into poly-D-lysine coated 384-well plates and cultured overnight in a 37° C. humidified tissue culture incubator under 5% CO2/[…] atmosphere. On the day of the experiment, the culture media was replaced with assay buffer (HBSS, 20 mM HEPES, 0.1% BSA) and the cells incubated at 37° C. for 1 h. Calcium-sensitive fluorescent dye (Fluo 8 No-Wash Calcium Dye, ABD Bioquest) was then added and the cells incubated for another 30 min at 37° C. followed by 15 min at room temperature while protected from the light. The cell plate and a plate of diluted compounds of Formula (II) were loaded into a fluorescent plate reader that added compounds onto the cells while measuring the fluorescence intensity of each well. The plate reader recorded fluorescence intensity at 1 second intervals for 8 min and provided the data for analysis in an Excel format. EC50 values were calculated using Prism (GraphPad) software.

Structures are written as SMILES. pEC50: −log10 of the molar value. Several values for one entry are separate records, joined by “and”; a condition that tells them apart may be missing. Identical values can stand only once.

Here are results for 10 molecules from US9908873B2, “GPR40 agonists for the treatment of type II diabetes” (Janssen Pharmaceutica NV, priority 2015, dated 2018).

As usually defined, the pEC50 is the EC50 on a negative log10 scale, so that one unit is a factor of ten.

T1 sequence (O14842 whole entry): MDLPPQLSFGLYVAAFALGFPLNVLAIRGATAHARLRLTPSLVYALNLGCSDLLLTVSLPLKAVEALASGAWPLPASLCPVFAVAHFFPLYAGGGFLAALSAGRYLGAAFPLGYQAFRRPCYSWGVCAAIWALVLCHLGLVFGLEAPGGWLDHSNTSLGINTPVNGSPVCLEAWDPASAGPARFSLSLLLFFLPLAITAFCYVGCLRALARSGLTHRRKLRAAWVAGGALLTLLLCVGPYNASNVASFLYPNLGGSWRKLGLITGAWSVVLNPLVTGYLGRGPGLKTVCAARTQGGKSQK

Take `COc1ccc(F)c(-c2noc(/C=C/c3cccc(C(CC(=O)O)C4CC4)c3)c2C2CC2)c1` (stereo in doubt) [Cpd 58, (3S)-3-cyclopropyl-3-[3-[(E)-2-[4-cyclopropyl-3-(2-fluoro-5-methoxy-phenyl)isoxazol-5-yl]vinyl]phenyl]propanoic acid]: the negative logarithm of the EC50 (pEC50) is 7.59. For `COc1ccc(F)c(-c2noc(COc3cc(C(CC(=O)O)C4CC4)ccn3)c2C2=CCCC2(C)C)c1` (stereo not shown) [Cpd 53, 3-cyclopropyl-3-[2-[[4-(5,5-dimethylcyclopenten-1-yl)-3-(2-fluoro-5-methoxy-phenyl)isoxazol-5-yl]methoxy]-4-pyridyl]propanoic acid], the pEC50 was 9.00. Take `COc1ccc(F)c(-c2noc(CCc3cccc([C@@H](CC(=O)O)C4CC4)c3)c2C2CCCC2(C)C)c1` (stereo partly drawn) [Cpd 54, (3S)-3-cyclopropyl-3-[3-[2-[4-(2,2-dimethylcyclopentyl)-3-(2-fluoro-5-methoxy-phenyl)isoxazol-5-yl]ethyl]phenyl]propanoic acid]: the negative-log EC50 (pEC50) was 9.00. Next, `COc1ccc(F)c(-c2noc(COc3cc(C(CC(=O)O)C4CC4)c(Cl)cn3)c2C2=CCCC2(C)C)c1` (stereo not shown) [Cpd 55, 3-[5-chloro-2-[[4-(5,5-dimethylcyclopenten-1-yl)-3-(2-fluoro-5-methoxy-phenyl)isoxazol-5-yl]methoxy]-4-pyridyl]-3-cyclopropyl-propanoic acid]: 7.66; `COc1ccc(F)c(-c2noc(/C=C/c3cccc([C@@H](CC(=O)O)C4CC4)c3)c2C2=CCCC2(C)C)c1` [Cpd 56, (3S)-3-cyclopropyl-3-[3-[(E)-2-[4-(5,5-dimethylcyclopenten-1-yl)-3-(2-fluoro-5-methoxy-phenyl)isoxazol-5-yl]vinyl]phenyl]propanoic acid]: 7.64.

Turning to `COc1ccc(F)c(-c2noc(CCc3cccc([C@@H](CC(=O)O)C4CC4)c3)c2C2CC2)c1` [Cpd 57, (3S)-3-cyclopropyl-3-[3-[2-[4-cyclopropyl-3-(2-fluoro-5-methoxy-phenyl)isoxazol-5-yl]ethyl]phenyl]propanoic acid], the pEC50 was 7.60. On to `COc1ccc(F)c(-c2noc(/C=C\c3cccc([C@@H](CC(=O)O)C4CC4)c3)c2C2=CCCC2(C)C)c1` [Cpd 59, (3S)-3-cyclopropyl-3-[3-[(Z)-2-[4-(5,5-dimethylcyclopenten-1-yl)-3-(2-fluoro-5-methoxy-phenyl)isoxazol-5-yl]vinyl]phenyl]propanoic acid], for which the pEC50 was 6.60. Take `COc1ccc(F)c(-c2cc(COc3cccc([C@@H](CC(=O)O)C4CC4)c3)sc2C(C)(C)C)c1` [Cpd 60, (3S)-3-[3-[[5-tert-butyl-4-(2-fluoro-5-methoxy-phenyl)-2-thienyl]methoxy]phenyl]-3-cyclopropyl-propanoic acid]: the pEC50 was 7.25 and 7.54. Next, `COc1ccc(F)c(-c2nsc(COc3cccc([C@@H](CC(=O)O)C4CC4)c3)c2C2=CCCC2(C)C)c1` [Cpd 61, (3S)-3-cyclopropyl-3-[3-[[4-(5,5-dimethylcyclopenten-1-yl)-3-(2-fluoro-5-methoxy-phenyl)isothiazol-5-yl]methoxy]phenyl]propanoic acid]: 6.59 and 6.69. On to `COc1ccc(F)c(-c2noc(COc3cccc([C@@H](CC(=O)O)C4CC4)c3)c2C2=CCCC2(C)C)c1` [Cpd 62, (3S)-3-cyclopropyl-3-[3-[[4-(5,5-dimethylcyclopenten-1-yl)-3-(2-fluoro-5-methoxy-phenyl)isoxazol-5-yl]methoxy]phenyl]propanoic acid], for which the pEC50 is 9.00.
